From patent publication US11413286B2, “Producing astrocytes using small molecules” (CITY OF HOPE, priority 2016, dated 2022)

Test system: Oct4-luc
Assay: Oct4-luc reporter induction by OAC compounds
Assay type: cell-based
Design: key to Oct4-luc Activity: Active: Compounds that induce Oct4-luc 1.8-fold or more were classified as being “active”; Inactive: molecules that induce Oct4-luc less than 1.8-fold were indicated as being “inactive”

Q: Which results are given for `O=C(Nc1cc2cc[nH]c2cn1)c1ccccc1` [Compound C1]?
A: Oct4-luc Activity: Active; Oct4-luc fold Induction: 4.72 fold

Q: Which results are given for `O=C(Nc1ccc2[nH]ccc2c1)c1ccccc1` [Compound C2]?
A: Oct4-luc Activity: Active; Oct4-luc fold Induction: 4.15 fold

Q: How did the “Oct4-luc Activity” value turn out when `O=C(Nc1ccc2[nH]ccc2c1)c1ccc(F)cc1` [Compound C3] was run?
A: Active

Q: And the “Oct4-luc fold Induction” value?
A: 3.84 fold

Q: Which results are given for `COc1ccc(C(=O)Nc2ccc3[nH]ccc3c2)cc1` [Compound C4]?
A: Oct4-luc Activity: Active; Oct4-luc fold Induction: 5.46 fold

Q: With `O=C(Nc1ccc2[nH]ccc2c1)c1ccc2nonc2c1` [Compound C5] as the molecule, how does the “Oct4-luc Activity” value read?
A: Active

Q: And the “Oct4-luc fold Induction” value?
A: 2.87 fold

Q: `COc1ccc(C(=O)Nc2ccc3[nH]ncc3c2)cc1` [Compound C6] was tested. Which “Oct4-luc Activity” value did it give?
A: Active

Q: What about the “Oct4-luc fold Induction” value of the same molecule?
A: 3.18 fold

Q: Which results are given for `O=C(Nc1ccc2[nH]ncc2c1)c1ccc(F)cc1` [Compound C7]?
A: Oct4-luc Activity: Active; Oct4-luc fold Induction: 2.2 fold

Q: Which “Oct4-luc Activity” value does the source give for `O=C(Nc1ccc2[nH]ncc2c1)c1ccccc1` [Compound C8] here?
A: Active

Q: And the “Oct4-luc fold Induction” value?
A: 1.89 fold

Q: For `CCOc1ccc(C(=O)Nc2ccc3[nH]ncc3c2)cc1` [Compound C9], which “Oct4-luc Activity” value is on record?
A: Active

Q: And the “Oct4-luc fold Induction” value?
A: 7.22 fold

Q: Which results are given for `CCc1ccc(C(=O)Nc2ccc3[nH]ncc3c2)cc1` [Compound C10]?
A: Oct4-luc Activity: Active; Oct4-luc fold Induction: 4.51 fold

Q: Which “Oct4-luc Activity” value does the source give for `CC(C)c1ccc(C(=O)Nc2ccc3[nH]ncc3c2)cc1` [Compound C11] here?
A: Active

Q: What about the “Oct4-luc fold Induction” value of the same molecule?
A: 3.78 fold

Q: Which “Oct4-luc Activity” value does the source give for `O=C(Nc1ccc2[nH]ncc2c1)c1ccc(Cl)cc1Cl` [Compound C12] here?
A: Active

Q: What about the “Oct4-luc fold Induction” value of the same molecule?
A: 3.6 fold

Q: With `Cc1ccc(C(=O)Nc2ccc3[nH]ncc3c2)cc1C` [Compound C13] as the molecule, how does the “Oct4-luc Activity” value read?
A: Active

Q: What about the “Oct4-luc fold Induction” value of the same molecule?
A: 2.78 fold

Q: What does the source list for `CCOc1cccc(C(=O)Nc2ccc3[nH]ncc3c2)c1` [Compound C14]?
A: Oct4-luc Activity: Active; Oct4-luc fold Induction: 2.67 fold

Q: Which “Oct4-luc Activity” value does the source give for `COc1cccc(C(=O)Nc2ccc3[nH]ncc3c2)c1` [Compound C15] here?
A: Active

Q: What about the “Oct4-luc fold Induction” value of the same molecule?
A: 1.93 fold

Q: What does the source list for `CN1CCC(c2c[nH]c3ccc(NC(=O)c4ccc(F)cc4)cc23)CC1` [Compound C16]?
A: Oct4-luc Activity: Inactive; Oct4-luc fold Induction: 1 fold

Q: `Cc1ccc(C(=O)Nc2ccc3[nH]cc(C#N)c3c2)cc1` [Compound C17] was tested. Which “Oct4-luc Activity” value did it give?
A: Inactive

Q: And the “Oct4-luc fold Induction” value?
A: 1.1 fold

Q: Which results are given for `O=C(Nc1ccc2[nH]ncc2c1)c1cccc(F)c1` [Compound C18]?
A: Oct4-luc Activity: Inactive; Oct4-luc fold Induction: 1.27 fold

Q: Which results are given for `O=C(Nc1ccc2[nH]ncc2c1)c1cccc(Cl)c1` [Compound C19]?
A: Oct4-luc Activity: Inactive; Oct4-luc fold Induction: 1.65 fold

Q: How did the “Oct4-luc Activity” value turn out when `O=C(Nc1ccc2[nH]ncc2c1)c1cccc(Br)c1` [Compound C20] was run?
A: Inactive

Q: And the “Oct4-luc fold Induction” value?
A: 1.48 fold

Q: With `O=C(Nc1ccc2[nH]ncc2c1)c1cccc(C(F)(F)F)c1` [Compound C21] as the molecule, how does the “Oct4-luc Activity” value read?
A: Inactive

Q: What about the “Oct4-luc fold Induction” value of the same molecule?
A: 1.48 fold

Q: For `O=C(Nc1ccc2[nH]ncc2c1)c1ccccc1F` [Compound C22], which “Oct4-luc Activity” value is on record?
A: Inactive

Q: What about the “Oct4-luc fold Induction” value of the same molecule?
A: 1.5 fold

Q: For `O=C(Nc1ccc2[nH]ncc2c1)c1ccccc1Cl` [Compound C23], which “Oct4-luc Activity” value is on record?
A: Inactive

Q: What about the “Oct4-luc fold Induction” value of the same molecule?
A: 1.72 fold

Q: Which results are given for `O=C(Nc1ccc2[nH]ncc2c1)c1ccccc1Br` [Compound C24]?
A: Oct4-luc Activity: Inactive; Oct4-luc fold Induction: 1.46 fold

Q: What does the source list for `COc1ccccc1C(=O)Nc1ccc2[nH]ncc2c1` [Compound C25]?
A: Oct4-luc Activity: Inactive; Oct4-luc fold Induction: 1.5 fold

Q: How did the “Oct4-luc Activity” value turn out when `CCOc1ccccc1C(=O)Nc1ccc2[nH]ncc2c1` [Compound C26] was run?
A: Inactive

Q: And the “Oct4-luc fold Induction” value?
A: 1.22 fold

Q: What does the source list for `COc1cccc(C(=O)Nc2ccc3[nH]ncc3c2)c1OC` [Compound C27]?
A: Oct4-luc Activity: Inactive; Oct4-luc fold Induction: 1.37 fold

Q: Which results are given for `COc1ccc(C(=O)Nc2ccc3[nH]ncc3c2)c(OC)c1` [Compound C28]?
A: Oct4-luc Activity: Inactive; Oct4-luc fold Induction: 1.42 fold

Q: Which “Oct4-luc Activity” value does the source give for `COc1ccc(C(=O)Nc2ccc3[nH]ncc3c2)cc1OC` [Compound C29] here?
A: Inactive

Q: What about the “Oct4-luc fold Induction” value of the same molecule?
A: 1.13 fold

Q: How did the “Oct4-luc Activity” value turn out when `CCOc1ccc(C(=O)Nc2ccc3[nH]ncc3c2)cc1OCC` [Compound C30] was run?
A: Inactive

Q: What about the “Oct4-luc fold Induction” value of the same molecule?
A: 1 fold

Q: With `O=C(Nc1ccc2[nH]nnc2c1)c1cccc(Cl)c1` [Compound C31] as the molecule, how does the “Oct4-luc Activity” value read?
A: Inactive

Q: And the “Oct4-luc fold Induction” value?
A: 1 fold

Q: For `Cc1nc2cc(NC(=O)c3ccc([N+](=O)[O-])cc3)ccc2[nH]1` [Compound C32], which “Oct4-luc Activity” value is on record?
A: Inactive

Q: What about the “Oct4-luc fold Induction” value of the same molecule?
A: 1.3 fold

Test system: reprogramming efficiency
Assay: Enhancement of reprogramming efficiency by OAC compounds
Assay type: cell-based

Q: With `O=C(Nc1cc2cc[nH]c2cn1)c1ccccc1` [Compound C1] as the molecule, how does the Enhance reprogramming efficiency read?
A: YES

Q: For `O=C(Nc1ccc2[nH]ccc2c1)c1ccccc1` [Compound C2], which Enhance reprogramming efficiency is on record?
A: YES

Q: How did the Enhance reprogramming efficiency turn out when `O=C(Nc1ccc2[nH]ccc2c1)c1ccc(F)cc1` [Compound C3] was run?
A: YES
